The values that follow come from patent US20200138827A1, “SMALL MOLECULE MODULATORS OF HUMAN STING” (Curadev Pharma Limited, priority 2017, published 2020).

For the assay, the target named is T1, WT/R232 STING protein (Homo sapiens, UniProt Q86WV6, H232R).
T1 construct: host or cells: HEK293T
T1 sequence (Q86WV6 whole entry H232R): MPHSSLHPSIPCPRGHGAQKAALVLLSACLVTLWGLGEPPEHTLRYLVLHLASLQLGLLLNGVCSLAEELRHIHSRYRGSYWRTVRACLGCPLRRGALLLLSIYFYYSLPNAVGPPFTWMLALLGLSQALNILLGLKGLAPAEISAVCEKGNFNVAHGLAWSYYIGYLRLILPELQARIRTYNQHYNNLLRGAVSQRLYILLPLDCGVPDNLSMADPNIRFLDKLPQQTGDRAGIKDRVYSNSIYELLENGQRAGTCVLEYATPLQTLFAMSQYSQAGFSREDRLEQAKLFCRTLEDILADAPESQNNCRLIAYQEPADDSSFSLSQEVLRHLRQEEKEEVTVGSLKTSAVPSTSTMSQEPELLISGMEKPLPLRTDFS
In words: Luciferase reporter assay in HEK293T-hSTING-Luciferase cells, WT/R232. Format: cell-based. Particulars: 20 hr stimulation, read-out: R232 Activity (EC50 range). The essentials: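 Clonal HEK293T cells stably expressing human STING R232 plus an ISRE/ISG54-driven luciferase reporter, 5×10^5 per well, stimulated with compounds for 20 h. Secreted luciferase in supernatant measured by luminescence; […].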
As to `O=C(NCc1cccs1)c1ccc2c(c1)N(Cc1c(F)cccc1Cl)C(=O)CS2` [Example 107, 4-(2-chloro-6-fluorobenzyl)-3-oxo-N-(thiophen-2-ylmethyl)-3,4-dihydro-2H-benzo[b-1,4]thiazine-6-carboxamide], the EC50 was in the range of 1 to 10 µM.

As for `O=C(NCc1ccccn1)c1ccc2c(c1)N(Cc1c(F)cccc1Cl)C(=O)CS2` [Example 108, 4-(2-chloro-6-fluorobenzyl)-3-oxo-N-(pyridin-2-ylmethyl)-3,4-dihydro-2H-benzo[b-1,4]thiazine-6-carboxamide], the concentration for a half-maximal effect (EC50) is above 10 µM. The value for `O=C(NCc1cccnc1)c1ccc2c(c1)N(Cc1c(F)cccc1Cl)C(=O)CS2` [Example 109, 4-(2-chloro-6-fluorobenzyl)-3-oxo-N-(pyridin-3-ylmethyl)-3,4-dihydro-2H-benzo[b-1,4]thiazine-6-carboxamide] was above 10 µM. With `O=C(NC(c1ccccc1)C1CCCCC1)c1ccc2c(c1)N(Cc1ccccc1F)C(=O)CS2` (stereo not drawn) [Example 110, N-(cyclohexyl (phenyl)methyl)-4-(2-fluorobenzyl)-3-oxo-3,4-dihydro-2H-benzo[b][1,4] thiazine-6-carboxamide], the EC50 is above 10 µM. Turning to `O=C(NCc1ccco1)c1ccc2c(c1)N(Cc1ccccc1)C(=O)CS2` [Example 111, 4-benzyl-N-(furan-2-ylmethyl)-3-oxo-3,4-dihydro-2H-benzo[b-1,4]thiazine-6-carboxamide], the concentration for a half-maximal effect (EC50) was above 10 µM. In the case of `O=C(NCc1c(F)cc(F)cc1F)c1ccc2c(c1)N(C(C(=O)O)c1ccccc1)C(=O)CS2` (stereo not drawn) [Example 113, 2-(3-oxo-6-((2,4,6-trifluorobenzyl)carbamoyl)-2H-benzo[b][1,4]thiazin-4(3H)-yl)-2-phenylacetic acid] it was above 10 µM; in that of `COc1cc(F)c(CN2C(=O)CSc3ccc(C(=O)NCc4c(F)cc(F)cc4F)cc32)c(F)c1` [Example 114, 4-(2,6-difluoro-4-methoxybenzyl)-3-oxo-N-(2,4,6-trifluorobenzyl)-3,4-dihydro-2H-benzo[b][1,4] thiazine-6-carboxamide], below 1 µM; in that of `O=C(NCc1c(F)cc(F)cc1F)c1ccc2c(c1)N(Cc1c(F)cc(O)cc1F)C(=O)CS2` [Example 115, 4-(2,6-difluoro-4-hydroxybenzyl)-3-oxo-N-(2,4,6-trifluorobenzyl)-3,4-dihydro-2H-benzo[b][1,4] thiazine-6-carboxamide], below 1 µM. The value for `COc1ccccc1CNC(=O)c1ccc2c(c1)N(Cc1ccccc1)C(=O)CS2` [Example 116, 4-benzyl-N-(2-methoxybenzyl)-3-oxo-3,4-dihydro-2H-benzo[b-1,4]thiazine-6-carboxamide] was above 10 µM. The value for `O=C(NCc1ccccc1Cl)c1ccc2c(c1)N(Cc1ccccc1)C(=O)CS2` [Example 117, 4-benzyl-N-(2-chlorobenzyl)-3-oxo-3,4-dihydro-2H-benzo[b-1,4]thiazine-6-carboxamide] was above 10 µM; that for `O=C(NCc1ccco1)c1ccc2c(c1)N(Cc1ccc(Cl)cc1)C(=O)CS2` [Example 119, 4-(4-chlorobenzyl)-N-(furan-2-ylmethyl)-3-oxo-3,4-dihydro-2H-benzo[b-1,4]thiazine-6-carboxamide] was 1 to 10 µM. For `Cn1cc(CNC(=O)c2ccc3c(c2)N(Cc2ccccc2)C(=O)CS3)cn1` [Example 121, 4-benzyl-N-((1-methyl-1H-pyrazol-4-yl)methyl)-3-oxo-3,4-dihydro-2H-benzo[b][1,4] thiazine-6-carboxamide], the concentration for a half-maximal effect (EC50) was above 10 µM. In the case of `O=C(NCc1ccc(F)cc1)c1ccc2c(c1)N(Cc1ccccc1Cl)C(=O)CS2` [Example 122, 4-(2-chlorobenzyl)-N-(4-fluorobenzyl)-3-oxo-3,4-dihydro-2H-benzo[b-1,4]thiazine-6-carboxamide] it was 1 to 10 µM; in that of `O=C(NCc1ccccc1Cl)c1ccc2c(c1)N(Cc1ccccc1Cl)C(=O)CS2` [Example 123, N,4-bis(2-chlorobenzyl)-3-oxo-3,4-dihydro-2H-benzo[b-1,4]thiazine-6-carboxamide], above 10 µM. The value for `O=C(NCc1ccccc1Cl)c1ccc2c(c1)N(Cc1cccc(Cl)c1)C(=O)CS2` [Example 124, N-(2-chlorobenzyl)-4-(3-chlorobenzyl)-3-oxo-3,4-dihydro-2H-benzo[b-1,4]thiazine-6-carboxamide] was above 10 µM; that for `CC(NC(=O)c1ccc2c(c1)N(Cc1ccc(Cl)cc1)C(=O)CS2)c1ccccc1` (stereo not drawn) [Example 125, 4-(4-chlorobenzyl)-3-oxo-N-(1-phenylethyl)-3,4-dihydro-2H-benzo[b-1,4]thiazine-6-carboxamide] was above 10 µM. For `O=C(NCc1ccccc1)c1ccc2c(c1)N(Cc1c(F)cccc1Cl)C(=O)CS2` [Example 126, N-benzyl-4-(2-chloro-6-fluorobenzyl)-3-oxo-3,4-dihydro-2H-benzo[b-1,4]thiazine-6-carboxamide], the EC50 lay in the range of 1 to 10 µM. Consider `Cc1ccc(CN2CCC(CNC(=O)c3ccc4c(c3)N(Cc3c(F)cccc3Cl)C(=O)CS4)CC2)cc1` [Example 128, 4-(2-chloro-6-fluorobenzyl)-N-((1-(4-methylbenzyl)piperidin-4-yl)methyl)-3-oxo-3,4-dihydro-2H-benzo[b][1,4]thiazine-6-carboxamide], for which the EC50 was above 10 µM. The value for `O=C(NCCc1ccccc1)c1ccc2c(c1)N(Cc1c(F)cccc1Cl)C(=O)CS2` [Example 129, 4-(2-chloro-6-fluorobenzyl)-3-oxo-N-phenethyl-3,4-dihydro-2H-benzo[b-1,4]thiazine-6-carboxamide] was above 10 µM. The value for `O=C(NCC1CCCO1)c1ccc2c(c1)N(Cc1c(F)cccc1Cl)C(=O)CS2` (stereo not drawn) [Example 130, 4-(2-chloro-6-fluorobenzyl)-3-oxo-N-((tetrahydrofuran-2-yl)methyl)-3,4-dihydro-2H-benzo[b-1,4]thiazine-6-carboxamide] was above 10 µM; that for `CC1(C)Sc2ccc(C(=O)NCc3ccco3)cc2N(Cc2ccccc2)C1=O` [Example 132, 4-Benzyl-N-(furan-2-ylmethyl)-2,2-dimethyl-3-oxo-3,4-dihydro-2H-benzo[b-1,4]thiazine-6-carboxamide] was above 10 µM. Consider `CC1Sc2ccc(C(=O)NCc3ccco3)cc2N(Cc2ccccc2)C1=O` (stereo not drawn) [Example 134, 4-benzyl-N-(furan-2-ylmethyl)-2-methyl-3-oxo-3,4-dihydro-2H-benzo[b-1,4]thiazine-6-carboxamide], for which the EC50 is 1 to 10 µM.

For `CN(C)C1Sc2ccc(C(=O)NCc3ccco3)cc2N(Cc2ccccc2F)C1=O` (stereo not drawn) [Example 135, 2-(dimethylamino)-4-(2-fluorobenzyl)-N-(furan-2-ylmethyl)-3-oxo-3,4-dihydro-2H-benzo[b-1,4]thiazine-6-carboxamide], the EC50 is above 10 µM. The value for `CCOC1Sc2ccc(C(=O)NCc3ccco3)cc2N(Cc2ccccc2F)C1=O` (stereo not drawn) [Example 137, 2-ethoxy-4-(2-fluorobenzyl)-N-(furan-2-ylmethyl)-3-oxo-3,4-dihydro-2H-benzo[b-1,4]thiazine-6-carboxamide] was above 10 µM. The value for `CC1(CC(=O)O)Sc2ccc(C(=O)NCc3ccco3)cc2N(Cc2ccccc2F)C1=O` (stereo not drawn) [Example 139, 2-(4-(2-fluorobenzyl)-6-((furan-2-ylmethyl)carbamoyl)-2-methyl-3-oxo-3,4-dihydro-2H-benzo[b-1,4]thiazin-2-yl)acetic acid] was above 10 µM; that for `Cc1cccc(CNC(=O)c2ccc3c(c2)N(Cc2ccccc2Cl)C(=O)C(C)S3)c1` (stereo not drawn) [Example 143, 4-(2-chlorobenzyl)-2-methyl-N-(3-methylbenzyl)-3-oxo-3,4-dihydro-2H-benzo[b-1,4]thiazine-6-carboxamide] was 1 to 10 µM; that for `CC1Sc2ccc(C(=O)NCc3c(F)cc(F)cc3F)cc2N(Cc2c(F)ccc(O)c2Cl)C1=O` (stereo not drawn) [Example 155, 4-(2-chloro-6-fluoro-3-hydroxybenzyl)-2-methyl-3-oxo-N-(2,4,6-trifluorobenzyl)-3,4-dihydro-2H-benzo[b][1,4] thiazine-6-carboxamide] was below 1 µM. In the case of `N#CCC1Sc2ccc(C(=O)NCc3ccc(F)cc3F)cc2N(Cc2cc(F)cc(F)c2)C1=O` (stereo not drawn) [Example 162, 2-(cyanomethyl)-N-(2,4-difluorobenzyl)-4-(3,5-difluorobenzyl)-3-oxo-3,4-dihydro-2H-benzo[b][1,4] thiazine-6-carboxamide] it was 1 to 10 µM; in that of `Cc1cnc(CNC(=O)c2ccc3c(c2)N(Cc2cc(F)cc(F)c2)C(=O)C(C)S3)o1` (stereo not drawn) [Example 163, 4-(3,5-difluorobenzyl)-2-methyl-N-((5-methyloxazol-2-yl)methyl)-3-oxo-3,4-dihydro-2H-benzo[b][1,4] thiazine-6-carboxamide], 1 to 10 µM. As to `CC1(O)Sc2ccc(C(=O)NCc3c(F)cc(F)cc3F)cc2N(Cc2c(F)cccc2Cl)C1=O` (stereo not drawn) [Example 164, 4-(2-chloro-6-fluorobenzyl)-2-hydroxy-2-methyl-3-oxo-N-(2,4,6-trifluorobenzyl)-3,4-dihydro-2H-benzo[b][1,4] thiazine-6-carboxamide], the EC50 lay in the range of 1 to 10 µM. The value for `CC1(F)Sc2ccc(C(=O)NCc3c(F)cc(F)cc3F)cc2N(Cc2c(F)cccc2Cl)C1=O` (stereo not drawn) [Example 165, 4-(2-chloro-6-fluorobenzyl)-2-fluoro-2-methyl-3-oxo-N-(2,4,6-trifluorobenzyl)-3,4-dihydro-2H-benzo[b][1,4] thiazine-6-carboxamide] was above 10 µM; that for `NCCC1Sc2ccc(C(=O)NCc3ccc(F)cc3F)cc2N(Cc2cc(F)cc(F)c2)C1=O` (stereo not drawn) [Example 166, 2-(2-aminoethyl)-N-(2,4-difluorobenzyl)-4-(3,5-difluorobenzyl)-3-oxo-3,4-dihydro-2H-benzo[b] [1,4]thiazine-6-carboxamide] was above 10 µM; that for `Cc1noc(CNC(=O)c2ccc3c(c2)N(Cc2cc(F)cc(F)c2)C(=O)C(C)S3)n1` (stereo not drawn) [Example 167, 4-(3,5-difluorobenzyl)-2-methyl-N-((3-methyl-1,2,4-oxadiazol-5-yl)methyl)-3-oxo-3,4-dihydro-2H-benzo[b][1,4] thiazine-6-carboxamide] was 1 to 10 µM.

As usually defined, the EC50 is the midpoint of the concentration-response curve.
